Assay results from patent US20250296942A1, “Phosphonate-Based Coordination Complexes and Methods of Preparation and Use Thereof” (University of Puerto Rico, priority 2021, published 2025).

Test system: human breast cancer MDA-MB-231 cell line
Assay: AlamarBlue cytotoxicity, BPBPA series, MDA-MB-231
Format: cell-based
Details: for IC50: Homo sapiens
Method: Cell culture methods. MCF-7, MDA-MB-231, and hFOB 1.19 cell lines were incubated employing DMEM (37° C.) and DMEM: F12 (34° C.) medium, respectively, in a 5% CO2. Cell lines were supplemented using 10% FBS and 1% Pen-Strep and medium exchange was performed twice a week. Cell passages were carried out at 80% confluency.
Cell-based assays. Cell lines were seeded in 96 well plates at a density of 5×10^3 cells/mL, cells were incubated for 24 h before treatment. Both cell lines were treated with 100 μL of BPBPA (0-400 μM), LET (0-200 μM), unloaded and loaded nano-Ca@BPBPA (0-50 μM). All cell-based assays were performed for 24, 48, and 72 h of treatment. Control groups were treated with media (DMEM or DMEM: F12) supplemented with 1% Pen-Strep. Then, the media was removed and replaced with 100 μL of 10% AlamarBlue® solution. The 96 well plates were incubated for 4 h before measurements. Then, the fluorescence was assessed at 560 nm of excitation and λmax 590 nm of emission. The cell viability (%) was evaluated by contrasting the percentage of live cells of the control groups with the cells treated with BPBPA, LET, unloaded and loaded nano-Ca@BPBPA. The half-maximal inhibitory concentration (IC50) was determined for BPBPA and letrozole employing the dose-response curves (% cell live vs. concentration). The relative cell live (% RCL) was assessed for the unloaded and loaded nano-Ca@BPBPA, utilizing LET as a control group. The IC50 and % RCL were plotted using the GraphPad Prism software vs. 9.3.0.
The cytotoxicity of BPBPA (control), LET (control), nano-Ca@BPBPA (control), and drug-loaded nano-Ca@BPBPA (experimental) was investigated employing the human breast cancer, MCF-7 and MDA-MB-231, and the human osteoblast, hFOB 1.19, cell lines. The human MCF-7 cell line represents an ER-positive breast cancer model with estrogen, progesterone, and glucocorticoid receptors.^1 While, the human MDA-MB-231 cells correspond to a model of ER-negative breast cancer. Both selected cancer cell lines can be implicated in the development and progress of bone metastases in patients.^40,41 The human fetal hFOB 1.19 cells represent a homogeneous osteoblast-like (non-cancerous) model commonly employed to assess osteoblast differentiation.^42 The cytotoxicity of these materials was evaluated by determining the IC50 and % RCL. […] Similar results were found for MDA-MB-231 and hFOB 1.19 cell lines treated with LET (IC50 >200 μM) at the same time points (Supporting Information).
Cell culture methods. MCF-7 and MDA-MB-231 were incubated employing DMEM media at 37° C. in 5% CO2. The hFOB 1.19 cell lines were incubated using DMEM: F12 at 34° C. in 5% CO2. Cell lines were supplemented using 10% FBS and 1% Pen-Strep. The media was exchanged twice per week. Cell passages were carried out at 80% confluency.
Seeding. Cell lines were seeded in 96 well plates at a density of […] cells/mL; cells were incubated for 24 h before each treatment.
Treatment. Cell lines were treated with 100 μL of BPBPA (0-400 μM), LET (0-200 μM), unloaded and loaded nano-Ca@BPBPA (0.5-50 μM). Control groups were treated with media (DMEM or DMEM: F12) supplemented with 1% Pen-Strep. All cell-based assays were performed after 24, 48, and 72 h of treatment and in triplicate.
AlamarBlue@assay. To determine the cell viability, the media was removed and replaced with 100 μL of 10% AlamarBlue® solution. The 96 well plates were incubated for 4 h before measurements. Then, the fluorescence was assessed at 560 nm of excitation and λmax 590 nm of emission.

N#Cc1ccc(C(c2ccc(C#N)cc2)n2cncn2)cc1 [LET, letrozole]
% RCL (12.5 μM, 72 h): 99±1% | % RCL (50 μM, 24 h): ~86% | % RCL (50 μM, 48 h): ~83% | % RCL (50 μM, 72 h): ~82% | IC50 (24 h): > 200 µM | IC50 (48 h): > 200 µM | IC50 (72 h): > 200 µM
